From US9707234B2, “Spirocyclic hetercycle compounds useful as HIV integrase inhibitors” (MERCK SHARP & DOHME CORP., priority 2013, dated 2017) come the findings set out here.

For this assay, the system named is HIV-1 (H9IIIB or NL4-3 virus) replication in MT4-GFP cells. As to the kind of experiment: microbe, parasite or virus in culture. The class given is cell-based. Conditions: inhibition of reproductive ratio R0, 48-72 h post-infection.
[1] abbreviates: Human immunodeficiency virus 1, NL43, MT4-GFP cells infected with HIV-1, 100% normal human serum, read-out: ViKinG IP (nM) with 100% NHS.
[2] abbreviates: Human immunodeficiency virus 1, NL43, MT4-GFP cells infected with HIV-1, serum free conditions (0% NHS), read-out: ViKinG IP (nM) with 0% NHS.
[3] abbreviates: MT4-GFP cells infected with HIV-1, 100% normal human serum, read-out: ViKinG IP (nM) with 100% NHS.
Where [4] appears, read: MT4-GFP cells infected with HIV-1, serum free conditions (0% NHS), read-out: ViKinG IP (nM) with 0% NHS.
Where [5] appears, read: Human immunodeficiency virus 1, NL43, MT4-GFP cells infected with HIV-1, 10% normal human serum, read-out: ViKinG IP (nM) with 10% NHS.

Like-named read-outs stand apart in the source and are kept apart here.

Turning to `CN1C(=O)c2c(O)c(=O)c(-c3nnc(Cc4ccc(F)cc4)s3)cn2N(C)C12CCOC2` (stereo not drawn) [Compound 38], the IC50 reads like this: under setting [1], 132 nM; under setting [2], 3.8 nM.
For the compound `CCN1C(=O)c2c(O)c(=O)c(-c3nnc(Cc4ccc(F)cc4F)s3)cn2N(C)C12CCOC2` (single isomer, unassigned) [Compound 35], the IC50 is, setting by setting: under setting [3], 133 nM; under setting [4], 1.7 nM.
As for `CN1C(=O)c2c(O)c(=O)c(C(=O)NCc3ccc(F)cc3F)cn2N(Cc2ccccc2)C12CCOC2` (single isomer, unassigned) [Compound 162], under setting [3], the IC50 came to 72 nM.
For `CC1OCCC12N(C)C(=O)c1c(O)c(=O)c(C(=O)NCc3cccc(Cl)c3F)cn1N2C` (single isomer, unassigned) [Compound 137], the IC50 stood at 64 nM under setting [3] and 0.7 nM under setting [4].
For the compound `CCOCCN1C(=O)c2c(O)c(=O)c(C(=O)NCc3ccc(F)cc3F)cn2N(C)C12CCOC2` (single isomer, unassigned) [Compound 125], the IC50 came to 257 nM under setting [1] and 0.8 nM under setting [2].
In the case of `CN1C(=O)c2c(O)c(=O)c(-c3nnc(Cc4ccc(F)cc4F)s3)cn2N(C)C12CCCNCC2` (stereo not drawn) [Compound 34], the IC50 stood at 34 nM under setting [5] and 9.7 nM under setting [2].
For the compound `CCN1C(=O)c2c(O)c(=O)c(C(=O)NCc3ccc(F)cc3F)cn2N(C)C12CCNC2` (single isomer, unassigned) [Compound 172], the IC50 was 61 nM under setting [3] and 1.6 nM under setting [4].
The corresponding values for `CCOCCN1C(=O)c2c(O)c(=O)c(C(=O)NCc3cccc(Cl)c3F)cn2CC12CCOC2` (single isomer, unassigned) [Compound 80] are 217 nM and 1.7 nM.
Turning to `CN1C(=O)c2c(O)c(=O)c(-c3nnc(Cc4ccc(F)cc4F)s3)cn2N(C)C12CCSCC2` [Compound 25], the IC50 is, setting by setting: under setting [5], 17 nM; under setting [1], 257 nM; under setting [2], 5.3 nM.
With `CN1C(=O)c2c(O)c(=O)c(C(=O)NCc3ccc(F)cc3F)cn2CC12CCOC2` (single isomer, unassigned) [Compound 58], the IC50 runs as follows: under setting [5], 5 nM; under setting [3], 27 nM; under setting [4], 1.9 nM.
For the compound `COCN1n2cc(C(=O)NCc3ccc(F)cc3F)c(=O)c(O)c2C(=O)N(C)C12CCOC2` (single isomer, unassigned) [Compound 154], the IC50 was found to be 37 nM under setting [3] and 0.7 nM under setting [4].
Turning to `CCN1C(=O)c2c(O)c(=O)c(-c3nnc(Cc4ccc(F)cc4F)s3)cn2N(C)C12CCSCC2` [Compound 15], the IC50 under setting [5] came to 178 nM, the IC50 under setting [1] came to 3140 nM and the IC50 under setting [2] was determined as 8 nM.
As to `CN1C(=O)c2c(O)c(=O)c(-c3cnn(Cc4ccc(F)cc4F)c3)cn2CC12CCOC2` (stereo not drawn) [Compound 90], the IC50 by setting is: under setting [1], 123 nM; under setting [2], 34.1 nM.
For the compound `COCCCN1C(=O)c2c(O)c(=O)c(C(=O)NCc3ccc(F)cc3F)cn2CC12CCOC2` (single isomer, unassigned) [Compound 73], the IC50 under setting [1] is 30 nM and the IC50 under setting [2] was determined as 1.8 nM.
Take `O=C1c2c(O)c(=O)c(-c3nnc(Cc4ccc(F)cc4F)s3)cn2CC2(CCOC2)N1CCO` (stereo not drawn) [Compound 97]: the IC50 is, setting by setting: under setting [1], 1050 nM; under setting [2], 41.7 nM.
On to `CCOP(=O)(CCCN1n2cc(C(=O)NCc3ccc(F)cc3F)c(=O)c(O)c2C(=O)N(C)C12CCOC2)OCC` (racemic) [Compound 161], for which the IC50 under setting [1] amounted to 227 nM.
Take `CN1C(=O)c2c(O)c(=O)c(C(=O)NCc3ccc(F)c(Cl)c3F)cn2CC12CCOC2` (single isomer, unassigned) [Compound 56]: the IC50 under setting [1] was found to be 100 nM and the IC50 under setting [2] stood at 1.2 nM.
Regarding `CCOP(=O)(CCN1n2cc(C(=O)NCc3ccc(F)cc3F)c(=O)c(O)c2C(=O)N(C)C12CCOC2)OCC` (single isomer, unassigned) [Compound 159], under setting [1], the IC50 was determined as 71 nM.
As for `CCOC(=O)N1CCC2(CC1)N(CC)C(=O)c1c(O)c(=O)c(-c3nnc(Cc4ccc(F)cc4)s3)cn1N2C` [Compound 5], the IC50 runs as follows: under setting [5], 22 nM; under setting [1], 250 nM; under setting [2], 16.4 nM.
On to `CCN1C(=O)c2c(O)c(=O)c(C(=O)NCc3ccc(F)cc3F)cn2N(C)C12COC2` [Compound 144], for which the IC50 was 60 nM under setting [5], 591 nM under setting [1] and 1.5 nM under setting [2].
In the case of `CCN1C(=O)c2c(O)c(=O)c(C(=O)NCc3ccc(F)cc3F)cn2CC12CCCOC2` (stereo not drawn) [Compound 82], the IC50 under setting [3] came out at 680 nM and the IC50 under setting [4] is 3.1 nM.
With `CN1C(=O)c2c(O)c(=O)c(C(=O)NCc3ccc(F)c(Cl)c3)cn2CC12CCOC2` (single isomer, unassigned) [Compound 62], the IC50 under setting [3] came out at 72 nM and the IC50 under setting [4] was determined as 3.1 nM.
As for `CCOC(=O)N1CCC2(CC1)N(C)C(=O)c1c(O)c(=O)c(-c3nnc(Cc4ccc(F)cc4F)s3)cn1N2C` [Compound 19], the IC50 is, setting by setting: under setting [5], 9 nM; under setting [1], 133 nM.
For the compound `C[C@@H]1CC2(CCN1C(=O)OCc1ccccc1)N(C)C(=O)c1c(O)c(=O)c(-c3nnc(Cc4ccc(F)cc4F)s3)cn1N2C` (stereo partly drawn) [Compound 20], the IC50 under setting [5] was 234 nM.
Consider `CCOP(=O)(CCN1n2cc(C(=O)NCc3ccc(F)cc3F)c(=O)c(O)c2C(=O)N(C)C12CCOC2)OCC` (single isomer, unassigned) [Compound 160], for which, under setting [3], the IC50 was determined as 46 nM.
On to `CCOC(=O)N1CCC2(CC1)N(C)C(=O)c1c(O)c(=O)c(-c3nnc(Cc4ccc(F)cc4)s3)cn1N2C` [Compound 18], for which the IC50 reads like this: under setting [5], 13 nM; under setting [1], 254 nM.
`CN1C(=O)c2c(O)c(=O)c(C(=O)NCc3ccc(F)c(Cl)c3)cn2N(C)C12CCOC2` (single isomer, unassigned) [Compound 108]: the IC50 under setting [3] is 218 nM and the IC50 under setting [4] is 1.1 nM.
Turning to `CCN1C(=O)c2c(O)c(=O)c(-c3nnc(Cc4ccc(F)cc4)s3)cn2N(C)C12CCN(C(=O)OCc1ccccc1)CC2` [Compound 11], the IC50 reads like this: under setting [5], 31 nM; under setting [1], 359 nM.
With `COCCCN1n2cc(C(=O)NCc3ccc(F)cc3F)c(=O)c(O)c2C(=O)N(C)C12CCOC2` (single isomer, unassigned) [Compound 157], the IC50 was 111 nM under setting [1] and 2.5 nM under setting [4].
As for `CN1C(=O)c2c(O)c(=O)c(C(=O)NCc3ccc(F)cc3F)cn2N(CCCC(F)(F)F)C12CCOC2` (single isomer, unassigned) [Compound 165], under setting [3], the IC50 was 146 nM.
Turning to `CCN1C(=O)c2c(O)c(=O)c(-c3nnc(Cc4ccc(F)cc4F)s3)cn2N(C)C12CCN(C(=O)OC)CC2` [Compound 8], the IC50 reads like this: under setting [1], 131 nM; under setting [2], 5.5 nM.
For `CN1C(=O)c2c(O)c(=O)c(-c3nnc(Cc4ccc(F)cc4F)s3)cn2CC12CCOC2` (stereo not drawn) [Compound 101], the IC50 under setting [1] was determined as 70 nM and the IC50 under setting [2] was 4.6 nM.
With `CC1OCCC12N(C)C(=O)c1c(O)c(=O)c(C(=O)NCc3ccc(F)cc3F)cn1N2C` (single isomer, unassigned) [Compound 132], under setting [3], the IC50 stood at 77 nM.
In the case of `CCOCCN1C(=O)c2c(O)c(=O)c(C(=O)NCc3ccc(F)cc3F)cn2CC12CCOCC2` [Compound 44], the IC50 worked out at 57 nM under setting [1] and 5.8 nM under setting [2].
Take `CC1OCCC12N(C)C(=O)c1c(O)c(=O)c(C(=O)NCc3ccc(F)cc3F)cn1N2C` (single isomer, unassigned) [Compound 134]: the IC50 by setting is: under setting [3], 65 nM; under setting [4], 0.9 nM.
With `CCOCCN1C(=O)c2c(O)c(=O)c(C(=O)NCc3cccc(Cl)c3F)cn2CC12CCOC2` (single isomer, unassigned) [Compound 79], the IC50 by setting is: under setting [2], 2.3 nM; under setting [3], 603 nM.
With `CN1C(=O)c2c(O)c(=O)c(C(=O)NCc3ccc(F)cc3F)cn2N(Cc2ccccc2)C12CCOC2` (single isomer, unassigned) [Compound 163], under setting [3], the IC50 worked out at 35 nM.
For `CCN1C(=O)c2c(O)c(=O)c(-c3nnc(Cc4ccc(F)cc4F)s3)cn2N(C)C12CCS(=O)(=O)CC2` [Compound 16], the IC50 was 47 nM under setting [5] and 17.3 nM under setting [2].
As to `CN1C(=O)c2c(O)c(=O)c(-c3nnc(Cc4ccc(F)cc4F)s3)cn2N(C)C12CCN(S(=O)(=O)N(C)C)CC2` [Compound 24], the IC50 is 6 nM under setting [5], 86 nM under setting [1] and 11.9 nM under setting [2].
As for `CCN1C(=O)c2c(O)c(=O)c(C(=O)NCc3ccc(F)cc3F)cn2N(C)C12CCOC2` (single isomer, unassigned) [Compound 119], the IC50 is, setting by setting: under setting [5], 11 nM; under setting [1], 163 nM; under setting [2], 1.2 nM.
For the compound `COCCN1C(=O)c2c(O)c(=O)c(C(=O)NCc3ccc(F)cc3F)cn2CC12CCOC2` (single isomer, unassigned) [Compound 50], the IC50 was 107 nM under setting [3] and 3.1 nM under setting [4].
As to `CC(=O)N1CCC2(CC1)N(C)C(=O)c1c(O)c(=O)c(-c3nnc(Cc4ccc(F)cc4F)s3)cn1N2C` [Compound 23], the IC50 under setting [5] is 100 nM.
As for `CN1C(=O)c2c(O)c(=O)c(C(=O)NCc3ccc(F)c(Cl)c3F)cn2N(C)C12CCOC2` (single isomer, unassigned) [Compound 118], under setting [3], the IC50 was found to be 101 nM.
`CN1C(=O)c2c(O)c(=O)c(C(=O)NCc3ccc(F)cc3F)cn2N(C)C12COCC2(C)C` (single isomer, unassigned) [Compound 129]: the IC50 runs as follows: under setting [3], 73 nM; under setting [4], 0.6 nM.
With `O=C1NC2(CCOCC2)Cn2cc(-c3nnc(Cc4ccc(F)cc4F)s3)c(=O)c(O)c21` [Compound 98], the IC50 was 2030 nM under setting [1] and 91.6 nM under setting [2].
